Test results from publication PMC5743070 (The Journal of Biological Chemistry, 2017).

Molecular target: T1, TTD–PHD (UHRF1_126–366) (Homo sapiens, UniProt Q96T88)
T1 construct: His tag (TEV-cleavable) (N); made in house
T1 sequence (Q96T88 126-366): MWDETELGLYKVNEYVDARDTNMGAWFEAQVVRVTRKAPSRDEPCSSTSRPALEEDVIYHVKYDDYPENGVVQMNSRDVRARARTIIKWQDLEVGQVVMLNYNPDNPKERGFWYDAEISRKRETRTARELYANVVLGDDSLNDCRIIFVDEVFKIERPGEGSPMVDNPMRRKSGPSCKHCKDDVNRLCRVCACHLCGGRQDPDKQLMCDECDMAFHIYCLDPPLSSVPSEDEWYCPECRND
Experiment: SES ensemble fitting of SAXS data of TTD–PHD with BPC
Description: The Rg-based Kratky plot is shifted to higher coordinate values with respect to its position for apo TTD–PHD (supplemental Fig. S4). […] We performed SES fitting of SAXS data collected for TTD–PHD in the presence of BPC using MDPIN/OUT. The optimal ensemble, OEBPC(SAXS), fits the data reasonably well in the q range of 0 < q < 0.2. The Rg distribution is bimodal with the major peak at ∼25 Å and a minor peak at ∼34 Å (Fig. 4D). […] These less-compact, “linker-out” conformers should be unable to bind to H3K9me3 peptides in a cooperative manner (as in PDB code 3ASK ([10], [23])) and, in addition, be unable to bind via the isolated TTD because groove-H3K9me3 contacts found to be essential for this binding mode, as reported by Nady et al. ([9]), are blocked.
We used an ensemble approach for the structural characterization of the TTD–PHD in solution by utilizing the SES protocol ([18]). The strategy on which the SES method is based consists of two main steps: 1) generate the initial ensemble of conformations to approximate the conformational space available for a system in solution and 2) find the optimal population weight for each member of the initial ensemble that minimizes the discrepancy between the ensemble-predicted and the observed experimental data. The goodness of the ensemble fit is measured as χ^2. […] The ARMOR output was analyzed to select the optimal ensemble size using the l-curve ([18]), and the vector of the optimal weights, w, was calculated by averaging over top near optimal solutions with similar value of χ^2. […]

[1] = SES fitting using MDPIN/OUT, TTD–PHD with BPC

contribution of linker-bound structures to OEBPC(SAXS) (6,000 starting structures with linker bound to groove): zero contribution | Rg distribution of OEBPC(SAXS), major peak [1]: ~25 Å | Rg distribution of OEBPC(SAXS), minor peak [1]: ~34 Å
Structure (SMILES): N=C(N)N1CCC(Cc2ccccc2)CC1 [BPC, 4-benzylpiperidine-1-carboximidamide]
